According to US7001983B1, “Antipathogenic synthetic peptides and compositions comprising them” (priority 1997, dated 2006):
Converted amounts (≈) assume the structure as drawn. “And” between values parts separate entries of the source, which are not always exact repeats. Identical values can stand only once. Numbered stars: 1 amine (or outer) side, 2 acyl side, 3 side chain; on linkers, the order of the positions; unused ones are H or OH. Square brackets hold non-standard residues; d marks the D form. Peptide text beside a SMILES is read from it. Ethylenediamine = C(CN[*:2])N[*:1]

What was measured:
Bacillus megaterium Bm11 = format: cell-based; conditions: 100% inhibition of growth after 18–20 h
[1] = system: Salmonella typhimurium LT2; assay: Antibacterial activity (MIC), growth inhibition in LB medium; format: cell-based; conditions: 100% inhibition of growth after 18–20 h
Procedure: (§1) (viii) Antibacterial activity of the peptides. The antibacterial activity of the diastereomers was examined in sterile 96-well plates (Nunc F96 microtiter plates) in a final volume of 100 μL as follows: Aliquots (50 μl) of a suspension containing bacteria at a concentration of 10^6 Colony-Forming Units (CFU)/ml LB (Lauria broth) medium were added to 50 μL of water or 66% pooled normal human serum in PBS, containing the peptide in 2-fold serial dilutions. Growth inhibition was determined by measuring the absorbance at 492 nm with a Microplate autoreader E1309 (Bio-tek Instruments), following incubation for 18–20 h at 37° C. […] The bacteria used were: Escherichia coli D21, Pseudomonas aeruginosa ATCC 27853, Acinetobacter calcoaceticus Ac11, Salmonella typhimurium LT2, Bacillus megaterium Bm11, Micrococcus Iuteus ATCC 9341, Bacillus subtilis ATCC 6051.

[2] = system: Acinetobacter calcoaceticus Ac11; format: cell-based; conditions: 100% inhibition of growth after 18–20 h
[3] = system: human red blood cells (hRBC); assay: Hemolysis of human red blood cells; format: cell-based; conditions: hRBC; for % hemolysis at 50 μM peptide: 30 min at 37° C.
Procedure: (ix) Hemolysis of human red blood cells. The peptides were tested for their hemolytic activities against human red blood cells (hRBC). Fresh hRBC with EDTA were rinsed 3 times with PBS (35 mM phosphate buffer/0.15 M NaCl, pH 7.3) by centrifugation for 10 min at 800 g and resuspended in PBS. Peptides dissolved in PBS were then added to 50 μL of a solution of the stock hRBC in PBS to reach a final volume of 100 μL (final erythrocyte concentration, 5% v/v). The resulting suspension was incubated under agitation for 30 min at 37° C. The samples were then centrifuged at 800 g for 10 min. Release of hemoglobin was monitored by measuring the absorbance of the supernatant at 540 nm. Controls for zero hemolysis (blank) and 100% hemolysis consisted of hRBC suspended in PBS and Triton 1%, respectively.

Escherichia coli D21 = format: cell-based; conditions: 100% inhibition of growth after 18–20 h
[4] = system: Pseudomonas aeruginosa ATCC 27853; conditions: 100% inhibition of growth after 18–20 h
Procedure: (viii) Antibacterial activity of the peptides.
Antibacterial activity of the mixtures was determined as described in Experimental procedures, section (xii).

[5] = system: Micrococcus Iuteus ATCC 9341; assay: Antibacterial activity (MIC), growth inhibition in LB medium; format: cell-based, Micrococcus luteus; conditions: 100% inhibition of growth after 18–20 h
Procedure: as §1

[6] = system: Bacillus subtilis ATCC 6051; format: cell-based; conditions: 100% inhibition of growth after 18–20 h
[7] = system: Leishmania mexicana NR strain promastigotes; assay: Anti-Leishmania activity, counting living promastigotes; format: cell-based; conditions: 100% death after 24 h of incubation
Procedure: The melittin-derived diastereomer peptide 20 (see Example 2 above) and the Leu/Lys diastereomer peptide 23 (see Example 3 above) were tested against Leishmania. Promastigotes of the Leishmania mexicana NR strain to be assayed were cultured at 27° C. in RPMI 1640 medium supplemented with 10% fetal bovine serum. Parasite were harvested by centrifugation at 1200×g for 10 min at 4° C. and washed twice with PBS (50 mM sodium phosphate, 150 mM NaCl, pH 7). The washed promastigotes were counted in a hemocytometer and adjusted to 1×10^6 parasites/ml. Aliquotes of this suspension were assayed in a final volume of 100 μl by counting living (motile) cells after 24 h of incubation at 26° C. in the absence or presence of various concentrations of the diastereomers.

Row | Compound | Minimal Inhibitory Concentration B. megaterium (Bm11) (Bacillus megaterium Bm11) | Minimal Inhibitory Concentration S. typhimurium (LT2) [1] | Minimal Inhibitory Concentration A. calcoaceticus (Ac11) [2] | % hemolysis at 50 μM peptide [3] | Minimal Inhibitory Concentration E. coli (D21) (Escherichia coli D21) | Minimal Inhibitory Concentration P. aeruginosa (ATCC 27853) [4] | Minimal Inhibitory Concentration M. luteus (ATCC 9341) [5] | Minimal Inhibitory Concentration B. subtilis (ATCC 6051) [6] | hemolytic activity up to the maximum concentration tested ([3]; up to 50 μM) | MIC Leishmania mexicana [7]
1 | CC[C@H](C)[C@H](NC(=O)[C@H](CCCCN)NC(=O)[C@H]1CCCN1C(=O)[C@@H](NC(=O)[C@H](CC(C)C)NC(=O)[C@H](C)NC(=O)[C@H](Cc1ccccc1)NC(=O)[C@H](Cc1ccccc1)NC(=O)CNC(=O)[C@H](CCCCN)NC(=O)[C@@H](N)CCCCN)[C@@H](C)CC)C(=O)N[C@H](C(=O)N[C@@H](CO)C(=O)N[C@@H](CO)C(=O)N1CCC[C@H]1C(=O)N[C@@H](CC(C)C)C(=O)N[C@@H](Cc1ccccc1)C(=O)N[C@@H](CCCCN)C(=O)N[C@H](C(=O)N[C@H](CC(C)C)C(=O)N[C@H](CC(C)C)C(=O)N[C@@H](CO)C(=O)N[C@@H](C)C(=O)N[C@H](C(=O)O)C(C)C)[C@@H](C)O)[C@@H](C)CC [Peptide 6, K^1K^2[D]P^7L^18L^19[1-22]-par] | 6 µM | 120 µM | 6 µM | 0% | 15 µM | 60 µM | – | – | – | –
2 | CC[C@H](C)[C@H](NC(=O)[C@H](CCCCN)NC(=O)[C@H]1CCCN1C(=O)[C@@H](NC(=O)[C@H](CC(C)C)NC(=O)[C@H](C)NC(=O)[C@H](Cc1ccccc1)NC(=O)[C@H](Cc1ccccc1)NC(=O)CN)[C@@H](C)CC)C(=O)N[C@H](C(=O)N[C@@H](CO)C(=O)NCCN)[C@@H](C)CC [Peptide 7, [D]P^7-[1-11]-TApar] (H-GFFALI[dP]KIIS-Ethylenediamine; N-terminus assumed) | 30 µM | >120 µM | >120 µM | 0% | >120 µM | >120 µM | – | – | – | –
3 | CC[C@H](C)[C@H](NC(=O)[C@H](CCCCN)NC(=O)[C@@H]1CCCN1C(=O)[C@@H](NC(=O)[C@H](CC(C)C)NC(=O)[C@H](C)NC(=O)[C@H](Cc1ccccc1)NC(=O)[C@H](Cc1ccccc1)NC(=O)CN)[C@@H](C)CC)C(=O)N[C@H](C(=O)N[C@@H](CO)C(=O)N[C@@H](CO)C(=O)N1CCC[C@H]1C(=O)N[C@@H](CC(C)C)C(=O)N[C@@H](Cc1ccccc1)C(=O)N[C@@H](CCCCN)C(=O)N[C@H](C(=O)N[C@@H](CC(C)C)C(=O)N[C@@H](CC(C)C)C(=O)N[C@@H](CO)C(=O)N[C@@H](C)C(=O)N[C@H](C(=O)NCC(=O)N[C@@H](CO)C(=O)N[C@@H](C)C(=O)N[C@@H](CC(C)C)C(=O)N[C@@H](CO)C(=O)N[C@@H](CO)C(=O)N[C@@H](CO)C(=O)NCC(=O)NCC(=O)N[C@@H](CCC(N)=O)C(=O)N[C@@H](CCC(=O)NCCN)C(=O)NCCN)C(C)C)[C@@H](C)O)[C@@H](C)CC [Peptide 8, TApar] | 0.8 µM | 15 µM | 3 µM | 100% | 3 µM | 8 µM | 5 µM | 1.5 µM | – | –
4 | CC[C@H](C)[C@H](NC(=O)[C@H](CCCCN)NC(=O)[C@H]1CCCN1C(=O)[C@@H](NC(=O)[C@H](CC(C)C)NC(=O)[C@H](C)NC(=O)[C@H](Cc1ccccc1)NC(=O)[C@H](Cc1ccccc1)NC(=O)CN)[C@@H](C)CC)C(=O)N[C@H](C(=O)N[C@@H](CO)C(=O)N[C@@H](CO)C(=O)N1CCC[C@H]1C(=O)N[C@@H](CC(C)C)C(=O)N[C@@H](Cc1ccccc1)C(=O)N[C@@H](CCCCN)C(=O)N[C@H](C(=O)N[C@@H](CC(C)C)C(=O)N[C@@H](CC(C)C)C(=O)N[C@@H](CO)C(=O)N[C@@H](C)C(=O)N[C@H](C(=O)NCC(=O)N[C@@H](CO)C(=O)N[C@@H](C)C(=O)N[C@@H](CC(C)C)C(=O)N[C@@H](CO)C(=O)N[C@@H](CO)C(=O)N[C@@H](CO)C(=O)NCC(=O)NCC(=O)N[C@@H](CCC(N)=O)C(=O)N[C@@H](CCC(=O)NCCN)C(=O)NCCN)C(C)C)[C@@H](C)O)[C@@H](C)CC [Peptide 12, [D]P^7-TApar] | 1.2 µM | – | 5 µM | 49% | 10 µM | – | 5 µM | 2 µM | – | –
5 | CC[C@H](C)[C@H](NC(=O)[C@H](CCCCN)NC(=O)[C@@H]1CCCN1C(=O)[C@@H](NC(=O)[C@H](CC(C)C)NC(=O)[C@H](C)NC(=O)[C@H](Cc1ccccc1)NC(=O)[C@H](Cc1ccccc1)NC(=O)CN)[C@@H](C)CC)C(=O)N[C@H](C(=O)N[C@@H](CO)C(=O)N[C@@H](CO)C(=O)N1CCC[C@H]1C(=O)N[C@@H](CC(C)C)C(=O)N[C@@H](Cc1ccccc1)C(=O)N[C@@H](CCCCN)C(=O)N[C@H](C(=O)N[C@H](CC(C)C)C(=O)N[C@H](CC(C)C)C(=O)N[C@@H](CO)C(=O)N[C@@H](C)C(=O)N[C@H](C(=O)NCC(=O)N[C@@H](CO)C(=O)N[C@@H](C)C(=O)N[C@@H](CC(C)C)C(=O)N[C@@H](CO)C(=O)N[C@@H](CO)C(=O)N[C@@H](CO)C(=O)NCC(=O)NCC(=O)N[C@@H](CCC(N)=O)C(=O)N[C@@H](CCC(=O)NCCN)C(=O)NCCN)C(C)C)[C@@H](C)O)[C@@H](C)CC [Peptide 14, [D]L^18L^19-TApar] | 0.6 µM | – | 1.5 µM and 2.5 µM | 100% | 3.5 µM | – | 2.5 µM | 1.5 µM | – | –
6 | CC[C@@H](C)[C@@H](NC(=O)[C@H](CC(C)C)NC(=O)[C@H](C)NC(=O)[C@@H]1CCCN1C(=O)[C@H](CC(C)C)NC(=O)CNC(=O)[C@@H](NC(=O)[C@@H](NC(=O)[C@H](CC(C)C)NC(=O)[C@H](NC(=O)[C@H](CCCCN)NC(=O)[C@H](CC(C)C)NC(=O)[C@H](NC(=O)[C@H](C)NC(=O)CNC(=O)[C@@H](NC(=O)CN)[C@@H](C)CC)C(C)C)C(C)C)[C@@H](C)O)[C@@H](C)O)C(=O)N[C@@H](CO)C(=O)N[C@@H](Cc1c[nH]c2ccccc12)C(=O)N[C@H](C(=O)N[C@H](CCCCN)C(=O)N[C@@H](CCCNC(=N)N)C(=O)N[C@@H](CCCCN)C(=O)N[C@@H](CCCNC(=N)N)C(=O)N[C@@H](CCC(N)=O)C(=O)N[C@@H](CCC(N)=O)C(=O)O)[C@@H](C)CC [Peptide 19, [D]-V^5V^8I^17K^21-mel-COOH] | 1.2 µM | – | 18 µM | 0% | 18 µM | – | 50 µM | 8 µM | practically devoid of hemolytic activity | –
7 | CC[C@@H](C)[C@@H](NC(=O)[C@H](CC(C)C)NC(=O)[C@H](C)NC(=O)[C@@H]1CCCN1C(=O)[C@H](CC(C)C)NC(=O)CNC(=O)[C@@H](NC(=O)[C@@H](NC(=O)[C@H](CC(C)C)NC(=O)[C@H](NC(=O)[C@H](CCCCN)NC(=O)[C@H](CC(C)C)NC(=O)[C@H](NC(=O)[C@H](C)NC(=O)CNC(=O)[C@@H](NC(=O)CN)[C@@H](C)CC)C(C)C)C(C)C)[C@@H](C)O)[C@@H](C)O)C(=O)N[C@@H](CO)C(=O)N[C@@H](Cc1c[nH]c2ccccc12)C(=O)N[C@H](C(=O)N[C@H](CCCCN)C(=O)N[C@@H](CCCNC(=N)N)C(=O)NCCN)[C@@H](C)CC [Peptide 20, [D]-V^5V^8I^17K^21-[1-22]-TAmel] | 0.8 µM | – | 7 µM | 0% | 8 µM | – | 29 µM | – | – | 32 µM (≈ 75.2 µg/mL)
